From publication PMC9968196, “Synthesis, Characterization, and Biological Evaluation of Meldrum’s Acid Derivatives: Dual Activity and Molecular Docking Study” (Pharmaceuticals, 2023)
Values after ≈ are worked out from the molar mass of the structure shown.

Key:
[1] = Cytotoxicity, MTT assay, normal cells; assay type: cell-based, human; settings: human, MRC-5 normal lung fibroblast cells; MRC-5 normal fibroblast; 72 h
Method: (§1) Cell line cells were obtained from the American Type Culture Collection. Human cervical adenocarcinoma HeLa, human chronic myelogenous leukemia K562, non-small cell lung carcinoma A549, human colon carcinoma LS174, pancreatic carcinoma PaCa-2, and normal human lung fibroblast MRC-5 cell lines were grown in RPMI-1640 medium with 10% fetal bovine serum, L-glutamine, and penicillin–streptomycin solution. Cells were plated into the 96-well cell culture plates. Cells were incubated at 37 °C in CO2 incubator. Adherent cell lines were incubated for 20 h before addition of tested compounds. Two hours before addition of compounds, K562 cells were seeded into 96-well plates. The tested compounds were applied at five different concentrations ranging from 10 to 300 µM for 72 h. Thereafter, the survival of cells was determined by MTT assay in accordance with the protocol established by Mosmann and Ohno and Abe. The solution of MTT was added to blank and cell samples. The plates were incubated for 5 h at 37 °C, and then 10% solution of sodium dodecyl sulfate was added to the wells. The absorbance was measured at 570 nm using Thermo Scientific Multiskan EX plate reader. Three independent experiments were performed.

[2] = system: normal human lung fibroblast MRC-5; assay: Cytotoxicity, MTT assay, normal cells; assay type: cell-based; settings: MRC-5
Method: as §1

[3] = system: pancreatic carcinoma PaCa-2; assay: Cytotoxicity, MTT assay; assay type: cell-based; settings: Homo sapiens, 72 h
Method: as §1

[4] = system: human colon carcinoma LS174; assay: Cytotoxicity, MTT assay; assay type: cell-based
Method: as §1

[5] = system: human cervical adenocarcinoma HeLa; assay: Cytotoxicity, MTT assay; assay type: cell-based; settings: for selectivity index (SI): HeLa cells versus MRC-5; for IC50: Homo sapiens, HeLa, 72 h
Method: as §1

[6] = system: human chronic myelogenous leukemia K562; assay: Cytotoxicity, MTT assay; assay type: cell-based; settings: 72 h
Method: as §1

[7] = system: Bacillus subtilis (ATCC 6633); assay: Antimicrobial activity, broth microdilution MIC with resazurin; assay type: cell-based; settings: ATCC6633, B. subtilis, 37 °C, 24 h, average of three independent experiments
Method: (§2) The following strains of bacteria were used as test organisms in this study: Staphylococcus aureus (ATCC 25923), Bacillus subtilis (ATCC 6633), Bacillus cereus (ATCC 10987), and Escherichia coli (ATCC 25922). All the bacteria used were obtained from the American Type Culture Collection (ATCC). Cultures were stored at 4 °C and subcultured every 15 days. The minimal inhibitory concentration (MIC) was determined by the broth microdilution method using 96-well micro-titer plates. A series of dilutions of the tested compounds was used in the experiment against every microorganism. The starting solutions of tested compounds were obtained by measuring off a certain quantity of the compounds and dissolving it in 5% DMSO. The MIC was determined with resazurin. The inoculated plates were incubated at 37 °C for 24 h. Resazurin is an oxidation–reduction indicator used for the evaluation of microbial growth. It is a blue non-fluorescent dye that becomes pink and fluorescent when reduced to resorufin by oxidoreductases within viable cells. The boundary dilution without any changing in color of resazurin was defined as the MIC for the tested microorganism at a given concentration. As a positive control of growth inhibition, streptomycin was used. A 5% DMSO solution was used as a negative control for the influence of the solvents.

[8] = system: Bacillus cereus (ATCC 10987); assay: as above; assay type: cell-based; settings: ATCC10987, B. cereus, 37 °C, 24 h, average of three independent experiments
Method: as §2

[9] = system: Escherichia coli (ATCC 25922); assay: as above; assay type: cell-based; settings: ATCC25922, E. coli, 37 °C, 24 h, average of three independent experiments
Method: as §2

[10] = system: Staphylococcus aureus (ATCC 25923); assay: as above; assay type: cell-based; settings: ATCC25923, S. aureus, 37 °C, 24 h, average of three independent experiments
Method: as §2

[11] = system: non-small cell lung carcinoma A549; assay: Cytotoxicity, MTT assay; assay type: cell-based, human; settings: for selectivity index (SI): A549 cells versus MRC-5; for IC50: Homo sapiens, A549, 72 h
Method: as §1

[12] = set-up: method as in PMID 34019615, PMID 20000793; settings: cited from earlier work
Gyrase B of E. Coli = system: Gyrase B of E. Coli; set-up: method as in PMID 31257079; settings: read-out: inhibitory activity IC50; cited from earlier work

MIC [7] [µM]	MIC [8] [µM]	MIC [9] [µM]	MIC [10] [µM]	SMILES	IC50 at 72 h [1] [µM]	toxicity towards MRC-5 cell lines (in words) [2]	IC50 [3] [µM]	IC50 ([4]; Homo sapiens, LS174, 72 h) [µM]	selectivity index (SI) [5]	IC50 [5] [µM]	IC50 [6] [µM]	selectivity index (SI) [11]	IC50 [11] [µM]	pKa [12]	IC50 (Gyrase B of E. Coli) [µM]	IC50 ([4]; 72 h) [µM]
31.5 (≈ 12.3 µg/mL)	64.8 (≈ 25.3 µg/mL)	14.7 (≈ 5.74 µg/mL)	54.2 (≈ 21.2 µg/mL)	CCCCCCCCOc1ccc(C=C2C(=O)OC(C)(C)OC2=O)cc1OC [3h, 5-(3′-methoxy-4′-octyloxybenzylidene)-2,2-dimethyl-1,3-dioxane-4,6-dione]	72.8 ± 0.77	moderate toxicity	90.5 ± 0.83	36.5 ± 0.24	2.9	18.2 ± 0.11	73.5 ± 1.43	4.3	27.4 ± 0.78			
				CC1(C)OC(=O)CC(=O)O1 [Meldrum’s acid]										4.9		
45.2 (≈ 17 µg/mL)	37.5 (≈ 14.1 µg/mL)	36.1 (≈ 13.6 µg/mL)	60.4 (≈ 22.7 µg/mL)	CCCCCCCOc1ccc(C=C2C(=O)OC(C)(C)OC2=O)cc1OC [3g, 5-(4′-heptyloxy-3′-methoxybenzylidene)-2,2-dimethyl-1,3-dioxane-4,6-dione]	139 ± 3.07		94.2 ± 1.09	47.1 ± 1.69			69.5 ± 1.37		35.1 ± 0.27			
169 (≈ 69.7 µg/mL)	168 (≈ 69.4 µg/mL)	74.8 (≈ 30.8 µg/mL)	200 (≈ 82.3 µg/mL)	COc1ccc(C(=O)Oc2ccc(C=C3C(=O)OC(C)(C)OC3=O)cc2OC)cc1 [3d, 2′-methoxy-4′-((2,2-dimethyl-4,6-dioxo-1,3-dioxan-5-ylidene)methyl)phenyl 4-methoxybenzoate]	> 200		145 ± 2.92	118.9 ± 0.95		94.5 ± 3.15	105.1 ± 0.92		36.2 ± 0.39			
180 (≈ 62.5 µg/mL)	172 (≈ 59.4 µg/mL)	85.1 (≈ 29.5 µg/mL)	206 (≈ 71.3 µg/mL)	COc1cc(C=C2C(=O)OC(C)(C)OC2=O)ccc1OC(=O)C1CC1 [3c, 2′-methoxy-4′-((2,2-dimethyl-4,6-dioxo-1,3-dioxan-5-ylidene)methyl)phenyl cyclopropanecarboxylate]	> 200		172 ± 5.25	99.6 ± 1.44		84.6 ± 1.84	70.2 ± 1.68		45.7 ± 1.65			
		115 (≈ 37.3 µg/mL)		COc1cc(C=C2C(=O)OC(C)(C)OC2=O)cc([N+](=O)[O-])c1O [3a, 5-(4′-hydroxy-3′-methoxy-5′-nitrobenzylidene)-2,2-dimethyl-1,3-dioxane-4,6-dione]	> 200		> 200	> 200		126 ± 1.45	151 ± 3.47		> 200			
				CCNC(=O)Nc1cc(-n2cc(Br)cn2)c(C(=O)Nc2cccnc2)cn1 [P3C, 4-(4-bromo-1H-pyrazol-1-yl)-6-[(ethylcarbamoyl)amino]-N-(pyridine-3-yl)pyridine-3-carboxamide]											0.037	
48.3 (≈ 17.5 µg/mL)	42.3 (≈ 15.3 µg/mL)	37.5 (≈ 13.6 µg/mL)	73.9 (≈ 26.8 µg/mL)	CCCCCCOc1ccc(C=C2C(=O)OC(C)(C)OC2=O)cc1OC [3f, 5-(4′-hexyloxy-3′-methoxybenzylidene)-2,2-dimethyl-1,3-dioxane-4,6-dione]	144 ± 2.84		110 ± 1.75	45.3 ± 0.58		63.5 ± 0.45	71.9 ± 1.65		39.6 ± 0.74			
0.003 (≈ 0.00174 µg/mL)	0.003 (≈ 0.00174 µg/mL)	0.01 (≈ 0.00582 µg/mL)	0.005 (≈ 0.00291 µg/mL)	[H]/N=C(/N)N[C@H]1[C@H](O)[C@@H](O)[C@H](O[C@@H]2O[C@@H](C)[C@](O)(C=O)[C@H]2O[C@@H]2O[C@@H](CO)[C@H](O)[C@@H](O)[C@@H]2NC)[C@@H](N/C(N)=N\[H])[C@@H]1O [streptomycin, reference compound]												
133 (≈ 54.6 µg/mL)	80.5 (≈ 33 µg/mL)	38.1 (≈ 15.6 µg/mL)	145 (≈ 59.6 µg/mL)	COc1cc(C=C2C(=O)OC(C)(C)OC2=O)ccc1OCCOCCOCCO [3e, 5-(4′-(2″-(2′″-(2″″-hydroxyethoxy)ethoxy)ethoxy)-3′-methoxybenzylidene)-2,2-dimethyl-1,3-dioxane-4,6-dione]	111 ± 2.19		182 ± 3.94	38.1 ± 0.41	4.0	37.3 ± 1.2	80.5 ± 2.36	2.6	25.9 ± 0.46			
175 (≈ 58.6 µg/mL)	174 (≈ 58.2 µg/mL)	89.5 (≈ 29.9 µg/mL)	210 (≈ 70.4 µg/mL)	CCC(=O)Oc1ccc(C=C2C(=O)OC(C)(C)OC2=O)cc1OC [3b, 2′-methoxy-4′-((2,2-dimethyl-4,6-dioxo-1,3-dioxan-5-ylidene)methyl)phenyl propionate]	> 200		153 ± 4.29	105 ± 4.62		102 ± 2.14	74.5 ± 1.73		41.2 ± 1.74			
29.5 (≈ 12.3 µg/mL)	41.5 (≈ 17.4 µg/mL)	12.4 (≈ 5.19 µg/mL)	50.9 (≈ 21.3 µg/mL)	CCCCCCCCCCOc1ccc(C=C2C(=O)OC(C)(C)OC2=O)cc1OC [3i, 5-(4′-decyloxy-3′-methoxybenzylidene)-2,2-dimethyl-1,3-dioxane-4,6-dione]	74.6 ± 1.46	moderate toxicity	58.2 ± 0.74	20.8	4.8	15.7 ± 0.28	63.7 ± 2.49		21.8 ± 0.91			30.5 ± 0.35
